Results as given in patent publication EP4603105A1, “PHARMACEUTICAL COMPOSITION CONTAINING CYCLIC COMPOUND HAVING SELECTIVE KRAS INHIBITORY EFFECT AGAINST HRAS AND NRAS” (CHUGAI SEIYAKU KABUSHIKI KAISHA, priority 2022, dated 2024).
*1 amine or outer side, *2 acyl side, *3 side chain or, on linkers, in order; H or OH if unused. Where a SMILES comes first, the peptide text is derived from it. Bridges are numbered along the chain shown (N, C = ends). [ ]: non-standard residue; d: D form. The star is where a group is joined. hPhe(3-Cl-4-CF3) = N[C@@H](CCc1ccc(C(F)(F)F)c(Cl)c1)C(=O)O; X1 = CCCCN([C@@H](Cc1ccc(C)cc1)C(=O)[*:2])[*:1]; NPrPhe(4-Me) = CCCN[C@@H](Cc1ccc(C)cc1)C(=O)O; NEtPhe(4-Me) = CCN[C@@H](Cc1ccc(C)cc1)C(=O)O; NMeGly(cPent) = CN[C@H](C(=O)O)C1CCCC1; Hyp = O=C(O)[C@@H]1C[C@@H](O)CN1; NMeD = CN[C@@H](CC(=O)O)C(=O)O; NMeL = CN[C@@H](CC(C)C)C(=O)O; NMeV = CN[C@H](C(=O)O)C(C)C; Pip = O=C(O)[C@@H]1CCCCN1; Morpholide = C1CN(*)CCO1; NMeA = CN[C@@H](C)C(=O)O; Ac5c = NC1(C(=O)O)CCCC1; Aze = O=C(O)[C@@H]1CCN1; X4 = C1CCC(*)OC1; Sar = CNCC(=O)O

How the values were obtained:
[1] = biological target: GDP-bound NRAS wild-type protein (Homo sapiens, UniProt P01111); experiment: Binding to NRAS by surface plasmon resonance (SPR), KD and KD ratio to KRAS
Chain of GDP-bound NRAS wild-type protein (P01111 whole entry): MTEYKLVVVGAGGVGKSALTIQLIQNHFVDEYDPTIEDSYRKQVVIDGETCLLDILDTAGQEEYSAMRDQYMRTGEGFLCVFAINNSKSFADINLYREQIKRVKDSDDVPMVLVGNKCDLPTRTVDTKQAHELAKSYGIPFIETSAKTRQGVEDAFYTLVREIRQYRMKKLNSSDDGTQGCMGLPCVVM
Summary of the method: (§1)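 Biotinylated GDP-bound RAS was captured at about 100–300 RU. Running buffer: HBS pH 7.4, 10 mM MgCl2, 10 µM GDP, 1 mM DTT, 0.01% Tween 20, 4% DMSO.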

[2] = tested on: human lung cancer strain NCI-H441; type: cell-based
Summary of the method: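 Step one: dispense the test compound in serial DMSO dilutions. Step three: add the reagent and measure […].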

[3] = biological target: GDP-bound KRAS wild-type protein (Homo sapiens, UniProt P01116); experiment: Binding to KRAS by surface plasmon resonance (SPR), dissociation constant KD
Chain of GDP-bound KRAS wild-type protein (P01116 1-188 isoform P01116-2): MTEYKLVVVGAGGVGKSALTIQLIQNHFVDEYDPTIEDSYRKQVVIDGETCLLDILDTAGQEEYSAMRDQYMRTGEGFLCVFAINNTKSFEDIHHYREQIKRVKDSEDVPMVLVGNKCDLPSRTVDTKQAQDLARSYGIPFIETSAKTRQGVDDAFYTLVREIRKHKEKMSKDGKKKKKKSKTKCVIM
Experimental: Surface plasmon resonance was used to analyze the binding affinity of compounds for KRAS, NRAS, and HRAS. The apparatus used was Biacore 8K, 8K+, or T200 (GE Healthcare), and the running buffer used was HBS (10 mM HEPES-NaOH, 150 mM NaCl, pH 7.4) containing 1 mM DTT, 10 mM MgCl2, 0.01% Tween 20, 10 µM GDP, and 4% DMSO.
Biotinylated Avi-tag fusion KRAS, NRAS, and HRAS proteins were expressed in E. coli BL21 (DE3) strains, and after cells were homogenized, they were purified using Streptavidin Mutein Matrix and Superdex 75. After purification, GDP-loaded KRAS, NRAS, and HRAS proteins were immobilized on the surface of Sensor Chip CAP (Cytiva) coated with Biotin CAPture Reagent in an immobilization amount of about 100 to 300 RU. Binding of each compound was evaluated by the Single Cycle Kinetics method, and a running buffer or a compound solution was added to the RAS protein non-immobilized surface and the immobilized surface to obtain a binding response. The flow rate was set to 100 µL/min, and in the compound-adding cycle, compound solutions having different concentrations were intermittently added for 75 seconds each, starting from a low concentration. […] In the blank cycle, a running buffer was intermittently added and not the compound solution. The Biotin CAPture Reagent and RAS proteins were immobilized for each cycle, and at the end of each cycle, the sensor chip was regenerated by the regeneration solution appended to the Biotin CAPture Kit (Cytiva). Measurement was carried out at 30°C.
The resulting sensorgram was subjected to curve fitting based on a 1:1 binding model on Biacore Insight Evaluation Software or T200 Evaluation Software, and thereby the dissociation constant KD of each compound with respect to KRAS, NRAS, and HRAS was determined. […] Blank indicates a compound from which the KD value with respect to NRAS or HRAS was not obtained.

[4] = biological target: HRAS wild-type protein (Homo sapiens, UniProt P01112); experiment: Binding to HRAS by surface plasmon resonance (SPR), KD and KD ratio to KRAS
Chain of HRAS wild-type protein (P01112 whole entry): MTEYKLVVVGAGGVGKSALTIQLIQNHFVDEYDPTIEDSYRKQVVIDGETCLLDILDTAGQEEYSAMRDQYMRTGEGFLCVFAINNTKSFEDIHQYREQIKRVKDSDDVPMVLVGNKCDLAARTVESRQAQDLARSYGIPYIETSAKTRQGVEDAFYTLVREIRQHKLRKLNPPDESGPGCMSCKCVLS
Summary of the method: as §1

[5] = ratio of KD for GDP-bound NRAS wild-type protein to KD for KRAS
[6] = ratio of KD for HRAS wild-type protein to KD for KRAS

Compound	NRAS /KRAS [1, 5]	IC50 [2]	Kd ([3]; 1:1 binding model)	HRAS /KRAS [4, 6]	Kd ([3]; Single Cycle Kinetics)	NRAS /KRAS ([1]; ratio of KD with respect to GDP-bound NRAS wild-type protein to KD with respect to KRAS)	Kd ([3]; Single Cycle Kinetics, 1:1 binding model)	HRAS /KRAS ([4]; ratio of KD with respect to HRAS wild-type protein to KD with respect to KRAS)
CCC[C@H]1C(=O)N[C@H]([C@@H](C)CC)C(=O)N(C)CC(=O)N(C)[C@H]2C/C=C\CCN(C2=O)[C@@H](Cc2ccc(C)cc2)C(=O)N(C)CC(=O)N[C@@H](CCc2cc(F)c(C(F)F)c(F)c2)C(=O)N2C[C@H](OCC)C[C@H]2C(=O)NC2(CC(C)(C)C2)C(=O)N(C)[C@@H](C(CC)CC)C(=O)N(C)[C@H](C(=O)N(C)C)CC(=O)N1C (stereo in doubt) [PP2783]	A (a compound having 10 or more and less than 20 is denoted as A)	33.9 nM	1.7 nM	A (a compound having 10 or more and less than 20 is denoted as A)				
CC[C@H](C)[C@@H]1NC(=O)[C@H](CC(C)C)N(C)C(=O)C[C@@H](C(=O)N2CCOCC2)N(C)C(=O)[C@H](C(C)C)N(C)C(=O)C2(CCCC2)NC(=O)[C@@H]2CCCN2C(=O)[C@H](CCc2ccc(C(F)(F)F)c(Cl)c2)NC(=O)CN(C)C(=O)[C@H](Cc2ccc(C)cc2)N(CC)C(=O)CN(C)C(=O)CN(C)C1=O [PP0044] ([NMeL]I[Sar][Sar][NEtPhe(4-Me)][Sar][hPhe(3-Cl-4-CF3)]P[Ac5c][NMeV][NMeD]-Morpholide; lactam N-11)	C (A compound having a KD ratio of 0.1 or more and less than 3 is denoted as C)	142 nM	3.6 nM	C (A compound having a KD ratio of 0.1 or more and less than 3 is denoted as C)				
CCCCN1C(=O)[C@@H]2CCN2C(=O)[C@H](C)N(C)C(=O)[C@H]([C@@H](C)CC)NC(=O)[C@H](CC(C)C)N(C)C(=O)C[C@@H](C(=O)N2CCOCC2)N(C)C(=O)[C@H](C2CCCC2)N(C)C(=O)C2(CCCC2)NC(=O)[C@@H]2CCCN2C(=O)[C@H](CCc2ccc(C(F)(F)F)c(Cl)c2)NC(=O)CN(C)C(=O)[C@@H]1Cc1ccc(C)cc1 [PP0055] ([NMeL]I[NMeA][Aze][X1][Sar][hPhe(3-Cl-4-CF3)]P[Ac5c][NMeGly(cPent)][NMeD]-Morpholide; lactam N-11)		3.5 nM	0.27 nM					
CC[C@H](C)[C@@H]1NC(=O)[C@H](CC(C)C)N(C)C(=O)C[C@@H](C(=O)N2CCOCC2)N(C)C(=O)[C@H](C2CCCC2)N(C)C(=O)C2(CCCC2)NC(=O)[C@@H]2C[C@@H](OC3CCCCO3)CN2C(=O)[C@H](CCc2ccc(C(F)(F)F)c(Cl)c2)NC(=O)CN(C)C(=O)[C@H](Cc2ccc(C)cc2)N(CC)C(=O)[C@@H]2CCN2C(=O)[C@H](C)N(C)C1=O (some centres unmarked) [PP0067] ([NMeL]I[NMeA][Aze][NEtPhe(4-Me)][Sar][hPhe(3-Cl-4-CF3)][Hyp](X4)[Ac5c][NMeGly(cPent)][NMeD]-Morpholide; lactam N-11)	C (A compound having a KD ratio of 0.1 or more and less than 3 is denoted as C)	2.7 nM	0.072 nM	C (A compound having a KD ratio of 0.1 or more and less than 3 is denoted as C)				
CC[C@H](C)[C@@H]1NC(=O)[C@H](CC(C)C)N(C)C(=O)C[C@@H](C(=O)N2CCOCC2)N(C)C(=O)[C@H](C2CCCC2)N(C)C(=O)C2(CCCC2)NC(=O)[C@@H]2C[C@@H](OC3CCCCO3)CN2C(=O)[C@H](CCc2ccc(C(F)(F)F)c(Cl)c2)NC(=O)CN(C)C(=O)[C@H](Cc2ccc(C)cc2)N(CC)C(=O)CN(C)C(=O)CN(C)C1=O (some centres unmarked) [PP0068] ([NMeL]I[Sar][Sar][NEtPhe(4-Me)][Sar][hPhe(3-Cl-4-CF3)][Hyp](X4)[Ac5c][NMeGly(cPent)][NMeD]-Morpholide; lactam N-11)	C (A compound having a KD ratio of 0.1 or more and less than 3 is denoted as C)	9.1 nM	0.14 nM	C (A compound having a KD ratio of 0.1 or more and less than 3 is denoted as C)				
CCCN1C(=O)[C@@H]2CCN2C(=O)[C@@H]2CCCCN2C(=O)[C@H]([C@@H](C)CC)NC(=O)[C@H](CC(C)C)N(C)C(=O)C[C@@H](C(=O)N2CCOCC2)N(C)C(=O)[C@H](C2CCCC2)N(C)C(=O)C2(CCCC2)NC(=O)[C@@H]2CCCN2C(=O)[C@H](CCc2ccc(C(F)(F)F)c(Cl)c2)NC(=O)CN(C)C(=O)[C@@H]1Cc1ccc(C)cc1 [PP0070] ([NMeL]I[Pip][Aze][NPrPhe(4-Me)][Sar][hPhe(3-Cl-4-CF3)]P[Ac5c][NMeGly(cPent)][NMeD]-Morpholide; lactam N-11)	C (A compound having a KD ratio of 0.1 or more and less than 3 is denoted as C)	2.1 nM	0.16 nM	B (a compound having 3 or more and less than 10 is denoted as B)				
CC[C@H](C)[C@@H]1NC(=O)[C@H](CC(C)C)N(C)C(=O)C[C@@H](C(=O)N2CCOCC2)N(C)C(=O)[C@H](C2CCCC2)N(C)C(=O)C2(CCC2)NC(=O)[C@@H]2C[C@@H](O)CN2C(=O)[C@H](CCc2cc(F)c(C(F)(F)F)c(F)c2)NC(=O)CN(C)C(=O)[C@H](Cc2ccc(C(F)(F)F)cc2)N2CCCCC[C@@H](C2=O)N(C)C(=O)CN(C)C1=O [PP0871]		438 nM			0.4 nM			
CC[C@H](C)[C@@H]1NC(=O)[C@H](CC(C)C)N(C)C(=O)C[C@@H](C(=O)N2CCOCC2)N(C)C(=O)[C@H](C2CCCC2)N(C)C(=O)C2(CCC2)NC(=O)[C@@H]2[C@@H](O)CCN2C(=O)[C@H](CCc2cc(F)c(C(F)(F)F)c(F)c2)NC(=O)CN(C)C(=O)[C@H](Cc2ccc(C(F)(F)F)cc2)N2CCCCC[C@@H](C2=O)N(C)C(=O)CN(C)C1=O [PP0872]		2600 nM			1.7 nM			
C=CCCCC[C@H]1C(=O)N[C@@H]([C@@H](C)CC)C(=O)N(C)CC(=O)N(C)[C@H]2CCCCCN(C2=O)[C@@H](Cc2ccc(C(F)(F)F)cc2)C(=O)N(C)CC(=O)N[C@@H](CCc2cc(F)c(C(F)(F)F)c(F)c2)C(=O)N2C[C@H](OCC)C[C@H]2C(=O)N[C@](C)(CC=C)C(=O)N(C)[C@@H](C2CCCC2)C(=O)N(C)[C@H](C(=O)N2CCOCC2)CC(=O)N1C [PP0881]		374 nM			5.5 nM			
CC[C@H](C)[C@@H]1NC(=O)[C@H](CC(C)C)N(C)C(=O)C[C@@H](C(=O)N(C)C)N(CCC2CCCC2)C(=O)[C@H](C2CCCC2)N(C)C(=O)C2(CCCC2)NC(=O)[C@@H]2CCCN2C(=O)[C@H](CCc2ccc(C(F)(F)F)c(Cl)c2)NC(=O)CN(C)C(=O)[C@H](Cc2ccc(F)cc2)N2CCCCC[C@@H](C2=O)N(C)C(=O)CN(C)C1=O [PP0975]		1570 nM			8.9 nM			
CC[C@H](C)[C@@H]1NC(=O)[C@H](CC(C)C)N(C)C(=O)C[C@@H](C(=O)N2CCOCC2)N(C)C(=O)[C@H](C2CCCC2)N(C)C(=O)C2(CCC2)NC(=O)[C@@H]2[C@@H](OCCC(F)(F)F)CCN2C(=O)[C@H](CCc2cc(F)c(C(F)(F)F)c(F)c2)NC(=O)CN(C)C(=O)[C@H](Cc2ccc(C(F)(F)F)cc2)N2CCCCC[C@@H](C2=O)N(C)C(=O)CN(C)C1=O [PP1008]		102 nM			1.1 nM			
CCO[C@@H]1C[C@H]2C(=O)NC3(CCC3)C(=O)N(C)[C@@H](C(CC)CC)C(=O)N(C)[C@H](C(=O)N(C)C)CC(=O)N(C)[C@@H](C)C(=O)N[C@@H]([C@@H](C)CC)C(=O)N(C)CC(=O)N(C)[C@H]3C/C=C\CCN(C3=O)[C@@H](Cc3ccc(C(F)(F)F)cc3)C(=O)N(C)CC(=O)N[C@@H](CCc3ccc(C(F)(F)F)c(OC)c3)C(=O)N2C1 [PP1206]						AA (a compound having 20 or more is denoted as AA)	0.17 nM	A (a compound having 10 or more and less than 20 is denoted as A)
